Six compounds from US12338236B2, “Benzoisothiazole and benzoisoxazole compounds for the treatment of mental disorders” (SUVEN LIFE SCIENCES LIMITED, priority 2022, dated 2025) can be followed below.

Test [1] deals with DOPA levels in striatum. The test is described as follows: Reserpine-induced DOPA accumulation. The settings on record: rats, s.c. Format: in vivo, Male Wistar rats. The procedure: Example-53: Reserpine-Induced DOPA Accumulation
Male Wistar rats were pretreated with reserpine (5 mg/kg, s.c.) approximately 18 h before sacrifice and were thereafter fasted until sacrifice. Example-2 (3 mg/kg, p.o.) and (3-(3-hydroxyphenyl)-N-n-propylpiperidine (3-PPP); 30 mg/kg, s.c.) were administered 1.16 h and 1 h, respectively before sacrifice. Haloperidol (0.5 mg/kg, s.c.) was used as a positive control and was dosed 10 min prior to 3-PPP in a separate group of animals. 3-Hydroxybenzylhydrazine dihydrochloride (NSD-1015; 100 mg/kg, s.c.) was then administered 0.5 h before sacrifice. Each rat was sacrificed, brain was removed and then striatum was isolated. The tissue was immediately weighed and homogenized in 0.1 N perchloric acid by means of an ultrasonic disruptor while being cooled in ice. The homogenate was centrifuged at 4° C. at 20,000 g for 15 min. The supernatant was assayed for dihydroxyphenylalanine (DOPA) levels using HPLC-ECD.

Test [2] addresses T1, human dopamine D2s receptor (Homo sapiens, UniProt P14416).
T1 construct: expressed in transfected cells; host or cells: CHO-K1
The test is described as follows: Determination of Ki values at D2S receptor ([3H]-Raclopride radioligand binding). The settings on record: hD2 (D2S), CHO-K1, [3H]-Raclopride 4 nM; read-out: Ki D2. The procedure: Example-45: Determination of Ki Values at D2S Receptor
• Receptor source: Recombinant mammalian cells (CHO-K1) • Radioligand: [^3H]-Raclopride (80.8 Ci/mmol) • Final ligand concentration: 4 nM • Non-specific determinant: 0.1 mM Haloperidol • Reference compound: Haloperidol • Positive control: Haloperidol Incubation conditions: Reactions were carried out in buffer with pH 7.4 containing 50 mM Tris-HCl, 120 mM NaCl, 5 mM KCl, 5 mM MgCl2, 1 mM EDTA for 2 h at RT. The reaction was terminated by rapid vacuum filtration onto the glass fiber filters. Radioactivity trapped onto the filters was determined and compared to the control values in order to ascertain any interactions of the test compound(s) with cloned human dopamine D2s receptor binding site.

For test [3], the target named is T2, human histamine H1 receptor (Homo sapiens, UniProt P35367).
T2 construct: expressed in transfected cells; host or cells: CHO-K1
The test is described as follows: Determination of Ki values at histamine H1 receptor ([3H]-Pyrilamine SPA binding). The settings on record: hH1, CHO-K1, [3H]-Pyrilamine 2 nM. The procedure:
Example-48: Determination of Ki values at Histamine H1 receptor
• Receptor source: Recombinant mammalian cells (CHO-K1) • Radioligand: [^3H]-Pyrilamine (20.7 Ci/mmol) • Final ligand concentration: 2 nM • Non-specific determinant: 0.1 mM Pyrilamine • Reference compound: Pyrilamine • Positive control: Pyrilamine Incubation conditions: Reactions were carried out in buffer with pH 7.4 containing 67 mM Tris-HCl and SPA beads (0.1 mg/well) for 1 h at 37° C. Radioactivity proximal to SPA beads was determined by scintillation proximity assay and compared to the control values in order to ascertain any interactions of the test compound(s) with cloned human histamine H1 receptor binding site.

Test [4] has as its target T3, human SERT (Homo sapiens, UniProt P31645).
T3 construct: expressed in transfected cells; host or cells: HEK293
The test is described as follows: Determination of Ki values at SERT receptor ([3H]-Citalopram SPA binding). The settings on record: hSERT, HEK293, [3H]-Citalopram 2 nM. The procedure: Example-46: Determination of Ki Values at SERT Receptor
• Receptor source: Recombinant mammalian cells (HEK293) • Radioligand: [^3H]-Citalopram (80.8 Ci/mmol) • Final ligand concentration: 2 nM • Non-specific determinant: 0.1 mM Venlafaxine • Reference compound: Venlafaxine • Positive control: Venlafaxine Incubation conditions: Reactions were carried out in buffer with pH 7.4 containing 50 mM Tris-HCl, 150 mM NaCl, 5 mM KCl and Scintillation proximity assay (SPA) beads (0.1 mg/well) for 3 h at RT. Radioactivity proximal to SPA beads was determined by scintillation proximity assay and compared to the control values in order to ascertain any interactions of the test compound(s) with cloned human SERT receptor binding site.

The target of test [5] is T4, human 5-HT1A receptor (Homo sapiens, UniProt P08908).
T4 construct: expressed in transfected cells; host or cells: HEK293-EBNA
T4 sequence (P08908 1-422): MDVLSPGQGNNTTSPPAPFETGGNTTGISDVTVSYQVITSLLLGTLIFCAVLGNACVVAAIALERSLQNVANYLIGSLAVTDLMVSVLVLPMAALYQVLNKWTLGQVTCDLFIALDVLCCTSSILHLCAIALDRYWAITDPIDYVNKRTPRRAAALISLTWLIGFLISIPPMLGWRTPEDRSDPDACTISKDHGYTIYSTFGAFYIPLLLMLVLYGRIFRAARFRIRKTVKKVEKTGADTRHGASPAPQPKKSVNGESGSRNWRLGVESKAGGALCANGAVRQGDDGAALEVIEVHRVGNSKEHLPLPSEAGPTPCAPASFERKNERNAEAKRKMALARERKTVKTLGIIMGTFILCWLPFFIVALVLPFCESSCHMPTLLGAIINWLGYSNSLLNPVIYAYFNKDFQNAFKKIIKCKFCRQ
Description: Determination of Ki values at 5-HT1A receptor ([3H]-8-Hydroxy DPAT radioligand binding). As to conditions: h5-HT1A, HEK293-EBNA, [3H]-8-Hydroxy DPAT 0.8 nM. The procedure:
Example-43: Determination of Ki Values at 5-HT1A Receptor
• Receptor source: Recombinant mammalian cells (HEK293-EBNA) • Radioligand: [^3H]-8-Hydroxy DPAT (200 Ci/mmol) • Final ligand concentration: 0.8 nM • Non-specific determinant: 0.1 mM U92016A • Reference compound: U92016A • Positive control: U92016A Incubation conditions: Reactions were carried out in buffer with pH 7.4 containing 50 mM Tris-HCl, 0.5 mM EDTA, 10 mM MgSO4, 0.1% Ascorbic acid for 2 h at RT. The reaction was terminated by rapid vacuum filtration onto the glass fiber filters. Radioactivity trapped onto the filters was determined and compared to the control values in order to ascertain any interactions of the test compound(s) with cloned human 5-HT1A receptor binding site.

For test [6], the target named is T5, human 5-HT2A receptor (Homo sapiens, UniProt P28223).
T5 construct: expressed in transfected cells; host or cells: CHO-K1
The test is described as follows: Determination of Ki values at 5-HT2A receptor ([3H]-Ketanserine radioligand binding). The settings on record: h5-HT2A, CHO-K1, [3H]-Ketanserine 1.25 nM. The procedure:
Example-44: Determination of Ki Values at 5-HT2A Receptor
• Receptor source: Recombinant mammalian cells (CHO-K1) • Radioligand: [^3H]-Ketanserine (41.9 Ci/mmol) • Final ligand concentration: 1.25 nM • Non-specific determinant: 0.1 mM 1-Napthyl piperazine (1-NP) • Reference compound: 1-Napthyl piperazine (1-NP) • Positive control: 1-Napthyl piperazine (1-NP) Incubation conditions: Reactions were carried out in buffer with pH 7.4 containing 50 mM Tris-HCl, 4 mM CaCl2, 0.1% Ascorbic acid for 1 h at RT. The reaction was terminated by rapid vacuum filtration onto the glass fiber filters. Radioactivity trapped onto the filters was determined and compared to the control values in order to ascertain any interactions of the test compound(s) with cloned human 5-HT2A receptor binding site.

Test [7] concerns the target T6, human adrenergic α1B receptor (Homo sapiens, UniProt P35368).
T6 construct: expressed in transfected cells; host or cells: Chem-1
T6 sequence (P35368 1-520): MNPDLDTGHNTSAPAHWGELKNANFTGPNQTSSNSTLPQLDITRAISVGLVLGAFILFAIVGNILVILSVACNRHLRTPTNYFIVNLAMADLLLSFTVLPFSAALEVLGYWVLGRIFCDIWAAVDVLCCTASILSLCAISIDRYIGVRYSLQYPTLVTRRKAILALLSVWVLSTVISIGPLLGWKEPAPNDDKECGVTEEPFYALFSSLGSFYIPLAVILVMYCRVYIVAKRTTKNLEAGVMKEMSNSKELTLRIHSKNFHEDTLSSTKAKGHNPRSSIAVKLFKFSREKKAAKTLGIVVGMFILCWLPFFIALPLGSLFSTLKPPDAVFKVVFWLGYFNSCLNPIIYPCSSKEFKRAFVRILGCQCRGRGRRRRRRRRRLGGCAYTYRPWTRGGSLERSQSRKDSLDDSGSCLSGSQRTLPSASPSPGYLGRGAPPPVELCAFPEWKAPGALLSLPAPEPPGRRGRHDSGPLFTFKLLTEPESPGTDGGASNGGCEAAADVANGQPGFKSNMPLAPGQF
Description: Determination of Ki values at adrenergic α1B receptor ([3H]-Prazosin radioligand binding). As to conditions: hα1B, Chem-1 cells, [3H]-Prazosin 1 nM; read-out: Ki Alpha1B. The procedure: Example-47: Determination of Ki Values at Adrenergic α1B Receptor
• Receptor source: Recombinant mammalian cells (Chem-1) • Radioligand: [^3H]-Prazosin (77.4 Ci/mmol) • Final ligand concentration: 1 nM • Non-specific determinant: 0.1 mM Prazosin • Reference compound: Prazosin • Positive control: Prazosin Incubation conditions: Reactions were carried out in buffer with pH 7.4 containing 67 mM Tris-HCl, 67 μM EDTA, […] for 1 h at RT. The reaction was terminated by rapid vacuum filtration onto the glass fiber filters. Radioactivity trapped onto the filters was determined and compared to the control values in order to ascertain any interactions of the test compound(s) with cloned human adrenergic α1B receptor binding site.

Where a name gives a salt, the structure may show the parent alone.

T2 sequence (P35367 whole entry): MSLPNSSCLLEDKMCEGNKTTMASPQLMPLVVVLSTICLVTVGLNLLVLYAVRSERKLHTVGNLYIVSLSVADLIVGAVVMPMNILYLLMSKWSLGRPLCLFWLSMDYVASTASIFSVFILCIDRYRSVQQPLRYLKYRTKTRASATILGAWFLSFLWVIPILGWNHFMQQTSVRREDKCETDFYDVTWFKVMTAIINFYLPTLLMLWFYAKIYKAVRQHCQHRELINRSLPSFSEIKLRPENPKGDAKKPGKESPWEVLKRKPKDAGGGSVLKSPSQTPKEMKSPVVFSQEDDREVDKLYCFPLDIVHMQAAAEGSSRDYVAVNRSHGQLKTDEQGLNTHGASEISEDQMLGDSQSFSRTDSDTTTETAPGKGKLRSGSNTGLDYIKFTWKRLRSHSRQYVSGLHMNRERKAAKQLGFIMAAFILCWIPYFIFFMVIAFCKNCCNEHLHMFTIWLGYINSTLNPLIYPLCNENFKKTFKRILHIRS
T1 sequence (P14416 1-414 isoform P14416-2): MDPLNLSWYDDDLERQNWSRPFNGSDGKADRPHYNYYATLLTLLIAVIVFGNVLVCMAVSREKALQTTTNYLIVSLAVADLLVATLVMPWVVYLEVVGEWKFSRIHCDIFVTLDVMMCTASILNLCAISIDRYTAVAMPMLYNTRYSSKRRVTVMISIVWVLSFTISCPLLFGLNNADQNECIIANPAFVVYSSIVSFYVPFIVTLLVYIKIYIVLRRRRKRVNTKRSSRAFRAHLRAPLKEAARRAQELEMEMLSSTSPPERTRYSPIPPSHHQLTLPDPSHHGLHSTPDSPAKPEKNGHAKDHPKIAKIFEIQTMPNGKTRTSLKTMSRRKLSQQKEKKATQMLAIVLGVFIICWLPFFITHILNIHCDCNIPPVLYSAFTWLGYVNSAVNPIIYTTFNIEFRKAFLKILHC
T3 sequence (P31645 whole entry): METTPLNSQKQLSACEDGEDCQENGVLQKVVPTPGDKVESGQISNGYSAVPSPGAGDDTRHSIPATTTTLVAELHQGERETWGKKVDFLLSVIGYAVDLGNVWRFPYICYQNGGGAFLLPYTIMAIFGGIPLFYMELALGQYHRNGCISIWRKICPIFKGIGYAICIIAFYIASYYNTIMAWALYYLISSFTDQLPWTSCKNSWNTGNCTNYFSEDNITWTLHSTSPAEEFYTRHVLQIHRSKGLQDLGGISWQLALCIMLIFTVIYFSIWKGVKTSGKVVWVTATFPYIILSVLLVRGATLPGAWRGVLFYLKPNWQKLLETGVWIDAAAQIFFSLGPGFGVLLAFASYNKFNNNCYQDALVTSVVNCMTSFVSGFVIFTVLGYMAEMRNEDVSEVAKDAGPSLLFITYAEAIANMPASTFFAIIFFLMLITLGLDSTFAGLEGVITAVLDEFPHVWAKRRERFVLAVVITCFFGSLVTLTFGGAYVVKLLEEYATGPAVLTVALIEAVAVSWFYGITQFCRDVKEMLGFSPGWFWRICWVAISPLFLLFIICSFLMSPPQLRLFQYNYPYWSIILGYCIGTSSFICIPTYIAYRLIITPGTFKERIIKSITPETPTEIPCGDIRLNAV
T5 sequence (P28223 whole entry): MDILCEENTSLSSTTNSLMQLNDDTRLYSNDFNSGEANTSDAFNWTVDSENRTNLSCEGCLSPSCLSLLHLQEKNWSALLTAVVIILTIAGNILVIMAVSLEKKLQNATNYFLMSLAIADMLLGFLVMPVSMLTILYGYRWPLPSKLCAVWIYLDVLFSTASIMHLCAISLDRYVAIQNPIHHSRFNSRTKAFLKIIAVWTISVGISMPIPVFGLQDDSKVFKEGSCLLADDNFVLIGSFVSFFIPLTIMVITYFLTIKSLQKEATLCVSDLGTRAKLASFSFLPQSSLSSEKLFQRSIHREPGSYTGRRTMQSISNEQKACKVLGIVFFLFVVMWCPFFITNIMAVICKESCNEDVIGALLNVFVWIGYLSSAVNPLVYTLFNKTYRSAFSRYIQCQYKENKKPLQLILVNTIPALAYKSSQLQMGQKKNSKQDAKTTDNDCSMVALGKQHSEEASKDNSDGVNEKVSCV

As to `CCCN1CCCC(c2cccc(O)c2)C1` (centres unmarked) [Example 3-PPP, 3-(3-hydroxyphenyl)-N-n-propylpiperidine], the “Reversal in reserpine induced DOPA accumulation” value in test [1] (30 mg/kg, 1 h before sacrifice, striatum) is on record as 77%.

As to `c1ccc2c(N3CCN(CCCOc4ccc(-c5cnco5)cn4)CC3)nsc2c1` [compound 22, 3-{4-[3-(5-Oxazol-5-yl-pyridin-2-yloxy)-propyl]-piperazin-1-yl}-benzo[d]isothiazole oxalate], the Ki in test [2] turned out to be 0.4 nM; in test [3], 1.8 nM; in test [4], 18.8 nM; in test [5] it was 0.3 nM; in test [6], 0.01 nM; in test [7] it was 5.7 nM.

`Cc1nnc(-c2csc(OCCCN3CCC(c4noc5cc(F)ccc45)CC3)n2)o1` [compound 24, 6-Fluoro-3-(1-{3-[4-(5-methyl-[1,3,4]oxadiazol-2-yl)-thiazol-2-yloxy]-propyl}-piperidin-4-yl)-benzo[d]isoxazole oxalate]: the Ki in test [2] came out at 0.7 nM; in test [3], 3.5 nM; in test [4], 1670 nM; in test [5] it was 1.8 nM; in test [6] it was 0.3 nM; in test [7], 1.5 nM.

As for `Cc1nc(-c2csc(OCCCN3CCN(c4nsc5ccccc45)CC3)n2)no1` [compound 10, 3-(4-{3-[4-(5-Methyl-[1,2,4]oxadiazol-3-yl)-thiazol-2-yloxy]-propyl}-piperazin-1-yl)-benzo[d]isothiazole oxalate], the Ki was 1.5 nM in test [2]; 4.2 nM in test [3]; 217 nM in test [4]; 0.4 nM in test [5]; 0.5 nM in test [6]; 44.1 nM in test [7].

In the case of `Cc1nnc(-c2csc(OCCCN3CCN(c4nsc5ccccc45)CC3)n2)o1` [Example-1, 3-(4-{3-[4-(5-Methyl-[1,3,4]oxadiazol-2-yl)-thiazol-2-yloxy]-propyl}-piperazin-1-yl)-benzo[d]isothiazole], the Ki in test [2] stood at 0.51 nM; in test [3], 8.8 nM; in test [4] it was 54.3 nM; in test [5] it was 0.1 nM; in test [6] it was 0.35 nM; in test [7], 12.5 nM.

As to `COC(=O)[C@H]1[C@H]2C[C@@H]3c4[nH]c5cc(OC)ccc5c4CCN3C[C@H]2C[C@@H](OC(=O)c2cc(OC)c(OC)c(OC)c2)[C@@H]1OC` [reserpine], the “Increase in DOPA levels in striatum” value in test [1] (reserpine 5 mg/kg, about 18 h before sacrifice) is listed as “about 194%”.

By Ki is commonly meant a dissociation constant, usually derived from enzyme kinetics or from competition with a known ligand.
